# Laboratory results from paper PMC13114161 (Antibiotics, 2026).
# Like-named read-outs stand apart in the source and are kept apart here.
# Columns and labels:
# P. aeruginosa ATCC 27853 [1] = assay: MIC and levofloxacin potentiation (broth microdilution); assay type: cell-based, Pseudomonas aeruginosa; settings: for MIC: Pseudomonas aeruginosa, ATCC27853
# [2] = test system: multidrug-resistant P. aeruginosa clinical isolates from the CDC-FDA; assay: Levofloxacin MIC potentiation, CDC-FDA isolates; assay type: cell-based, Pseudomonas aeruginosa; settings: for Levofloxacin MIC fold difference, +EPI / Levofloxacin MIC, +EPI: EPI […] (TXA11114, TXA09155) or 50 μg/mL (MC-04,124, PAβN)
# Protocol: In a comparative study, the levofloxacin-potentiating activity of TXA11114 was evaluated alongside the well-characterized EPIs PAβN and MC-04,124 using P. aeruginosa clinical isolates obtained from the CDC and FDA Antimicrobial Resistance Isolate Bank and the Walter Reed Army Institute of Research (WRAIR). […] While PAβN has been widely studied in laboratory strains, its activity against the CDC/FDA P. aeruginosa panel has been reported only sparingly, limiting direct cross-study comparisons.
# (§1) MIC assays for potentiation of antimicrobial activity against P. aeruginosa were performed as described previously.
# [3] = test system: multidrug-resistant P. aeruginosa clinical isolates from Walter Reed Army Hospital; assay: Levofloxacin MIC potentiation, WRAIR MRSN isolates; assay type: cell-based, Pseudomonas aeruginosa
# Protocol: as §1
# [4] = test system: P. aeruginosa DA7232 (gyrA-T83I, parC-S80L); assay: Levofloxacin MIC potentiation; assay type: cell-based, Pseudomonas aeruginosa; settings: DA7232; […] TXA11114
# Protocol: as §1
# [5] = test system: P. aeruginosa ATCC 27853 ompH mutants EPIR32, EPIR36, EPIR38; assay: microbe, parasite or virus in culture; assay type: cell-based, Pseudomonas aeruginosa
# Protocol: as §1
# Maximum tolerated dose = settings: female, CD-1, mouse, iv
# Protocol: Thus, the safety and tolerability of TXA11114 was determined to find an optimum dosing capability. The maximum tolerated dose (MTD) of TXA11114 was assessed in female mice (CD-1, 6–8 weeks old) at the University of North Texas Health Science Center (UNTHSC). TXA11114 was administered IV to groups of three female mice. Mice were administered TXA11114 in the range 30–240 mg/kg (IV bolus). […] As doses are tolerated (not resulting in effects such as mortality, convulsions, or other severe morbidity), they are increased. Survival and general observations as to the tolerability of the administered dose started immediately and continued for a period of 48 h after each dose was recorded.
# P. aeruginosa ATCC 27853 [6] = assay: Neutropenic murine thigh infection model; assay type: in vivo, CD-1 mice
# Protocol: Female CD-1 mice (6–8 weeks old; 22 ± 2 g) were obtained from Envigo Laboratories, quarantined for at least 3 days, and housed 5 per cage in accordance with the approved IACUC protocol (IACUC-2017-0049). Neutropenia was induced by intraperitoneal (IP) administration of cyclophosphamide (Cytoxan) at 150 mg/kg on day 4 and 100 mg/kg on day 1 prior to infection.
# Mice were infected intramuscularly (IM) in the right thigh with 0.1 mL of bacterial suspension containing approximately 1 × 10^5–10^6 CFU/mL. […] At 2 h or 24 h post-infection, mice were euthanized by CO2 asphyxiation, and thighs were aseptically excised and placed in 2 mL sterile phosphate-buffered saline (PBS) on ice. Tissue homogenization was performed using a Polytron PT10-35 (12 mm aggregate, Kinematica, Malters, Switzerland).
# Plates were incubated overnight at 37 °C, and colonies were enumerated the following day.
# P. aeruginosa ATCC 27853 [7] = assay: Neutropenic murine lung infection model; assay type: in vivo, CD-1 mice
# Protocol: For the lung infection model, mice were anesthetized by IP injection of 0.15 mL of a ketamine (40 mg/kg) + xylazine (6 mg/kg) mixture and inoculated intranasally (IN) with 0.05 mL of a 4 × 10^8 CFU/mL bacterial suspension applied dropwise to the external nares. Two hours post-infection, mice received test articles IV (EPIs) or SC (levofloxacin). At 2 h or 24 h post-infection, mice were euthanized by CO2 asphyxiation, and lungs were aseptically removed, placed in 2 mL sterile PBS, and homogenized using the same procedure described above. Homogenates were serially diluted and plated (8 µL spots) onto BHI-charcoal and citrate agar, incubated overnight at 37 °C, and colonies were counted the following day.
# [8] = combined CDC/FDA and WRAIR MDR isolate sets
# [9] = +24 hr, TXA11114 30 mg/kg IV QID alone
structure (smiles),measurement,setting,value
"NCC(F)C[C@@H](N)CNC(=O)c1cc2ccc(-c3ccc(F)cc3)cc2[nH]1 (stereo partly drawn) [TXA11114, N-((2R)-2,5-diamino-4-fluoropentyl)-6-(4-fluorophenyl)-1H-indole-2-carboxamide]",Fold MIC reduction [LVX/EPI-LVX],"P. aeruginosa ATCC 27853 [1]; EPI at […], ATCC 27853",8 fold
same,MIC,"P. aeruginosa ATCC 27853 [1]; ATCC 27853 parent strain (Table S1), read-out: MIC",100 µg/mL
same,MIC,"P. aeruginosa ATCC 27853 [1]; EPI alone, ATCC 27853, read-out: EPI MIC",100 µg/mL
same,LVX MIC (+EPI),"P. aeruginosa ATCC 27853 [1]; levofloxacin MIC with EPI at […], ATCC 27853",0.125 µg/mL
same,"Levofloxacin MIC fold difference, +EPI",[2]; AR-0229,32 fold
same,"Levofloxacin MIC, +EPI",[2]; AR-0229,2 µg/mL
same,"Levofloxacin MIC fold difference, +EPI",[2]; AR-0232,16 fold
same,"Levofloxacin MIC, +EPI",[2]; AR-0232,0.5 µg/mL
same,"Levofloxacin MIC fold difference, +EPI",[2]; AR-0233,8 fold
same,"Levofloxacin MIC, +EPI",[2]; AR-0233,0.5 µg/mL
same,"Levofloxacin MIC fold difference, +EPI",[2]; AR-0234,32 fold
same,"Levofloxacin MIC, +EPI",[2]; AR-0234,0.25 µg/mL
same,"Levofloxacin MIC fold difference, +EPI",[2]; AR-0239,4 fold
same,"Levofloxacin MIC, +EPI",[2]; AR-0239,8 µg/mL
same,"Levofloxacin MIC fold difference, +EPI",[2]; AR-0242,4 fold
same,"Levofloxacin MIC, +EPI",[2]; AR-0242,2 µg/mL
same,"Levofloxacin MIC fold difference, +EPI",[2]; AR-0244,"8, (8) fold"
same,"Levofloxacin MIC, +EPI",[2]; AR-0244,"8, (8) μg/mL"
same,"Levofloxacin MIC fold difference, +EPI",[2]; AR-0246,"8, (8) fold"
same,"Levofloxacin MIC, +EPI",[2]; AR-0246,"8, (8) μg/mL"
same,"Levofloxacin MIC fold difference, +EPI",[2]; AR-0248,8 fold
same,"Levofloxacin MIC, +EPI",[2]; AR-0248,2 µg/mL
same,"Levofloxacin MIC fold difference, +EPI",[2]; AR-0249,16 fold
same,"Levofloxacin MIC, +EPI",[2]; AR-0249,4 µg/mL
same,"Levofloxacin MIC fold difference, +EPI",[2]; AR-0252,8 fold
same,"Levofloxacin MIC, +EPI",[2]; AR-0252,4 µg/mL
same,"Levofloxacin MIC fold difference, +EPI",[2]; AR-0253,16 fold
same,"Levofloxacin MIC, +EPI",[2]; AR-0253,0.125 µg/mL
same,"Levofloxacin MIC fold difference, +EPI",[2]; AR-0264,16 fold
same,"Levofloxacin MIC, +EPI",[2]; AR-0264,4 µg/mL
same,Share of CDC isolates with levofloxacin MIC reduced ≥8-fold (potentiated),"[2]; TXA11114 […], PAβN and MC-04,124 50 µg/mL",approximately 85%
same,Share of isolates in which levofloxacin was potentiated,[2]; [8],> 90%
same,Share of strains restored to levofloxacin susceptibility at or below EUCAST breakpoint (≤2 μg/mL),[2]; [8],approximately 60%
same,Reductions in levofloxacin MIC values in many strains,[2]; diverse MDR clinical isolates,4- to 32 fold
same,Levofloxacin MIC reductions across panel,"[3]; 20 MRSN isolates, + TXA11114 […]",2- to 32 fold
same,Share of isolates shifted to levofloxacin susceptibility,"[3]; 20 highly MDR MRSN isolates, + TXA11114",65%
same,"Levofloxacin MIC fold difference, +TXA11114",[3]; MRSN #994,8 fold
same,"Levofloxacin MIC, +TXA11114",[3]; MRSN #994,2 µg/mL
same,"Levofloxacin MIC, +TXA11114",[3]; MRSN #1344,0.25 µg/mL
same,"Levofloxacin MIC fold difference, +TXA11114",[3]; MRSN #3587,8 fold
same,"Levofloxacin MIC, +TXA11114",[3]; MRSN #3587,1 µg/mL
same,"Levofloxacin MIC fold difference, +TXA11114",[3]; MRSN #3705,32 fold
same,"Levofloxacin MIC, +TXA11114",[3]; MRSN #3705,0.25 µg/mL
same,"Levofloxacin MIC fold difference, +TXA11114",[3]; MRSN #5498,8 fold
same,"Levofloxacin MIC, +TXA11114",[3]; MRSN #5498,4 µg/mL
same,"Levofloxacin MIC fold difference, +TXA11114",[3]; MRSN #5519,16 fold
same,"Levofloxacin MIC, +TXA11114",[3]; MRSN #5519,4 µg/mL
same,"Levofloxacin MIC fold difference, +TXA11114",[3]; MRSN #5539,2 fold
same,"Levofloxacin MIC, +TXA11114",[3]; MRSN #5539,8 µg/mL
same,"Levofloxacin MIC fold difference, +TXA11114",[3]; MRSN #6220,16 fold
same,"Levofloxacin MIC, +TXA11114",[3]; MRSN #6220,8 µg/mL
same,"Levofloxacin MIC fold difference, +TXA11114",[3]; MRSN #6241,4 fold
same,"Levofloxacin MIC, +TXA11114",[3]; MRSN #6241,2 µg/mL
same,"Levofloxacin MIC fold difference, +TXA11114",[3]; MRSN #6678,8 fold
same,"Levofloxacin MIC, +TXA11114",[3]; MRSN #6678,4 µg/mL
same,"Levofloxacin MIC fold difference, +TXA11114",[3]; MRSN # 6695,16 fold
same,"Levofloxacin MIC, +TXA11114",[3]; MRSN # 6695,0.5 µg/mL
same,"Levofloxacin MIC fold difference, +TXA11114",[3]; MRSN #8130,8 fold
same,"Levofloxacin MIC, +TXA11114",[3]; MRSN #8130,2 µg/mL
same,"Levofloxacin MIC fold difference, +TXA11114",[3]; MRSN #8139,8 fold
same,"Levofloxacin MIC, +TXA11114",[3]; MRSN #8139,1 µg/mL
same,"Levofloxacin MIC fold difference, +TXA11114",[3]; MRSN #8912,8 fold
same,"Levofloxacin MIC, +TXA11114",[3]; MRSN #8912,2 µg/mL
same,"Levofloxacin MIC fold difference, +TXA11114",[3]; MRSN #8914,8 fold
same,"Levofloxacin MIC, +TXA11114",[3]; MRSN #8914,2 µg/mL
same,"Levofloxacin MIC fold difference, +TXA11114",[3]; MRSN #8915,2 fold
same,"Levofloxacin MIC, +TXA11114",[3]; MRSN #8915,64 µg/mL
same,"Levofloxacin MIC fold difference, +TXA11114",[3]; MRSN #14981,16 fold
same,"Levofloxacin MIC, +TXA11114",[3]; MRSN #14981,1 µg/mL
same,"Levofloxacin MIC fold difference, +TXA11114",[3]; MRSN #15566,32 fold
same,"Levofloxacin MIC, +TXA11114",[3]; MRSN #15566,0.25 µg/mL
same,"Levofloxacin MIC fold difference, +TXA11114",[3]; MRSN #16344,16 fold
same,"Levofloxacin MIC, +TXA11114",[3]; MRSN #16344,0.5 µg/mL
same,"Levofloxacin MIC fold difference, +TXA11114",[3]; MRSN #369569,8 fold
same,"Levofloxacin MIC, +TXA11114",[3]; MRSN #369569,4 µg/mL
same,Levofloxacin MIC in presence of TXA11114,[4],1 µg/mL
same,Fold MIC reduction [LVX/EPI‐LVX],[5]; EPI36,1 fold
same,LVX MIC (+ EPI […]),[5]; EPI36,0.125
same,Fold MIC reduction [LVX/EPI‐LVX],[5]; EPIR32,1 fold
same,LVX MIC (+ EPI […]),[5]; EPIR32,0.25
same,MIC,"[5]; EPIR36, listed as TXA",200 µg/mL
same,MIC,"[5]; Pseudomonas aeruginosa, ATCC27853, EPIR32",> 200 µg/mL
same,MIC,"[5]; Pseudomonas aeruginosa, ATCC27853, EPIR36",> 200 µg/mL
same,MIC,"[5]; Pseudomonas aeruginosa, ATCC27853, EPIR38",200 µg/mL
same,MTD at 48 h,"Maximum tolerated dose; in vivo, Maximum tolerated dose (MTD), mice, IV bolus for TXA11114",< 90 mg/kg
same,MTD at 48 h,Maximum tolerated dose,> 60 mg/kg
same,"Effect of EPI alone on bacterial burden, thigh","P. aeruginosa ATCC 27853 [6]; 30 mg/kg, IV, QID",had no impact on bacterial burden
same,Mean Log10 CFU (thigh),P. aeruginosa ATCC 27853 [6]; [9],8.95 log10 CFU
same,"Mean Log10 CFU Change vs +2 hr Control, Δlog10 (treatment-baseline), thigh",P. aeruginosa ATCC 27853 [6]; [9],2.87 log10 CFU
same,"Mean Log10 CFU Change vs +24 hr Control, thigh",P. aeruginosa ATCC 27853 [6]; TXA11114 30 mg/kg IV QID alone,0.13 log10 CFU
same,"CFU reduction by combination, exceeding levofloxacin alone",P. aeruginosa ATCC 27853 [6]; murine thigh and lung infection models,> 1 log10 CFU
same,"Effect of EPI alone on bacterial burden, lung","P. aeruginosa ATCC 27853 [7]; 30 mg/kg, IV, QID",did not reduce bacterial burden
same,Mean Log10 CFU (lung),P. aeruginosa ATCC 27853 [7]; [9],8.75 log10 CFU
same,"Mean Log10 CFU Change vs +2 hr Control, Δlog10 (treatment-baseline), lung",P. aeruginosa ATCC 27853 [7]; TXA11114 30 mg/kg IV QID alone,4.16 log10 CFU
